In patent publication US8927580B2, “Thiosemicarbazone compounds and use in the treatment of cancer” (Oncochel Therapeutics LLC, priority 2010, dated 2015):

How the values were obtained:
[1] = system: MIAPaCa-2 pancreatic cancer cells; experiment: MTT proliferation assay, MIAPaCa-2; type: cell-based; details: Homo sapiens, MIA PaCa-2; MIAPaCa-2, MTT, 72 h
Experimental: (§1) The pancreatic cancer cell lines, including MIAPaCa-2, PANC 1, CAPAN-2 and CFPAC-1 were a generous gift from Prof. Andrew Biankin (Garvan Institute, NSW, Australia). The MIAPaCa-2, PANC 1 and CFPAC-1 cell lines were grown in DMEM medium (Invitrogen) and CAPAN-2 cells were grown in McCoy's medium (Invitrogen). All media was supplemented with 10% (v/v) fetal calf serum (Invitrogen), 1% (v/v) non-essential amino acids (Invitrogen), 1% (v/v) sodium pyruvate (Invitrogen), 2 mM L-glutamine (Invitrogen), 100 μg/mL of streptomycin (Invitrogen), 100 U/ml penicillin (Invitrogen), and 0.28 μg/mL of fungizone.
(§2) To further examine the spectrum of anti-proliferative activity, Dp4cycH4mT was tested against pancreatic cancer in vitro, performing MTT proliferation assays with PANC 1, MIAPaCa-2, CFPAC-1 and CAPAN-2 pancreatic cancer cells. As a comparison, currently used treatments for pancreatic cancer including gemcitabine and 5-fluorouracil were also tested. The iron chelator, DFO, was included as a positive control.
(§3) Table 2A. Anti-proliferative activity of Dp4cycH4mT against pancreatic cancer cell lines. Growth and antiproliferative activity IC50 (μM) values of Dp4cycH4mT in a variety of pancreatic cell lines and in comparison to DFO and the clinically used drugs gemcitabine and 5-fluorouracil as determined by the MTT assay. Cells were seeded and allowed to attach to wells for 24 h and then incubated for 72 h at 37° C. with control medium or the chelators. Results are mean±SD (3 experiments).
as §3, with “2B.” for “2A.”, “IC90” for “Growth and antiproliferative activity IC50”

[2] = PANC 1 xenograft study: body and organ weights, haematology, histopathology
[3] = system: CFPAC-1 pancreatic cancer cells; experiment: MTT proliferation assay, CFPAC-1; type: cell-based; details: Homo sapiens; CFPAC-1, MTT, 72 h
Experimental: as §1, §2, §3
as §3, with “2B.” for “2A.”, “IC90” for “Growth and antiproliferative activity IC50”

[4] = system: PANC 1 pancreatic cancer cells; experiment: MTT proliferation assay, PANC 1; type: cell-based; details: Homo sapiens; PANC 1, MTT, 72 h
Experimental: as §1, §2, §3
as §3, with “2B.” for “2A.”, “IC90” for “Growth and antiproliferative activity IC50”

[5] = system: SK-N-MC neuroepithelioma cells; experiment: Iron efflux assay (59Fe release from pre-labeled cells); type: cell-based, human; details: 25 μM chelator, 3 h at 37° C.
Experimental: The culture dishes were then placed on ice, the supernatant containing excess ^59Fe-Tf was aspirated and the cells washed 4 times with ice-cold PBS. […] After 3 h the culture dishes were again placed on ice, the media was collected in counting tubes and this provided a measurement of released ^59Fe. Ice-cold PBS (1 mL) was added to plates containing cells and cells were scraped from the plastic surface using a Teflon spatula and also collected in counting tubes. These tubes represent the intracellular ^59Fe content. Results are expressed as total ^59Fe released as a percentage of total ^59Fe present. Radioactivity was measured using a Wallac Wizard 3″ Gamma Counter (PerkinElmer, MA, USA).

[6] = system: pancreatic cancer cell lines; experiment: MTT proliferation assays, pancreatic cancer cell line panel (comparison of IC50); type: cell-based; details: in 2 out of the 4 cell types
Experimental: as §1, §2
Table 2A. Anti-proliferative activity of Dp4cycH4mT against pancreatic cancer cell lines. […]. Cells were seeded and allowed to attach to wells for 24 h and then incubated for 72 h at 37° C. with control medium or the chelators. Results are mean±SD (3 experiments).

cyclin D1 = experiment: Western blot analysis, cyclin D1 levels; type: cell-based; details: MIAPaCa-2 cells
Experimental: Western analysis was performed via established protocols (Gao, J. and D. R. Richardson (2001). Blood 98: 842-50). The primary antibodies used were against NDRG1 (Abcam; UK), p21, cyclin D1, transferrin receptor 1 (TfR1; Santa Cruz, CA, USA) and β-actin (Sigma-Aldrich), with secondary HRP-conjugated goat and mouse antibodies (Sigma-Aldrich).
Dp4cycH4mT was examined to determine whether it could up-regulate NDRG-1 expression. To further evaluate the effect of the chelator Dp4cycH4mT on other key molecules involved in cell cycle progression, the expression of the cyclin-dependent kinase inhibitor, p21, as well as cyclin D1 in MIAPaCa-2 cells was also examined.

metmyoglobin (metMb) = experiment: metMb formation in vivo; set-up: species or system C57BL6 mice; details: 6 mg/kg intravenously, 30 min post-administration, heart
Experimental: FIG. 14. Effect of thiosemicarbazone chelators on metMb-formation in vivo. MetMb levels after Dp44mT Triapine® or Dp4cycH4mT treatment in vivo at a dose of 6 mg/kg administered intravenously via the tail vein. Mice in the control group were treated with vehicle alone. At 30 min post-administration, whole hearts were collected for determination of metMb levels.
Mouse heart tissue was exhaustively perfused with ice-cold HBSS to remove blood and homogenized in ice-cold HBSS containing protease inhibitor cocktail (Roche, Basel, Switzerland). Heart homogenates were centrifuged (16,000×xg/45 min/4° C.) and the supernatant ([oxyMb]=50 μM) used immediately.
The levels of metHb and metMb in RBC lysates were determined using a Shimadzu UV-Vis spectrophotometer (UV-1800; Shimadzu Corporation, Kyoto, Japan) at 577 nm and 630 nm for metHb and metMb in accordance with published methods (Winterbourn CC and Carrell R W (1977). Biochem J 165: 141-148).
C57BL6 mice (7-8 weeks-old) were used under a protocol approved by the university of Sydney Animal Ethics Committee. Dp44mT, Triapine® or Dp4cycH4mT (all at 6 mg/kg) were dissolved in 30% propylene glycol/saline and administered iv via the tail vein. Subsequently, 30 min after administration, mice were anesthetized with isoflurane and blood samples obtained by cardiac puncture. Blood samples were lysed with 2.5 volumes of ultrapure water for metHb estimation. Mice were sacrificed with isoflurane, the heart exhaustively perfused with HBSS and Mb isolated.

CN(C(=S)NN=C(c1ccccn1)c1ccccn1)C1CCCCC1 [Dp4cycH4mT, di-2-pyridylketone 4-cyclohexyl-4-methyl-3-thiosemicarbazone]
IC50 [1]: 9 ± 0.3 nM
IC90 [1]: > 5000 nM
HCT ([2]; Dp4cycH4mT 5 mg/kg/day): 0.41 ± 0.01
Hb ([2]; Dp4cycH4mT 5 mg/kg/day): 131.88 ± 4.31 g/L
Platelets ([2]; Dp4cycH4mT 5 mg/kg/day): 1283 ± 160 10^9/L
RBC ([2]; Dp4cycH4mT 5 mg/kg/day): 9.46 ± 0.31 × 10^12/L
Reticulocytes ([2]; Dp4cycH4mT 5 mg/kg/day): 0.77 ± 0.08 × 10^12/L
WBC ([2]; Dp4cycH4mT 5 mg/kg/day): 3.5 ± 0.34 × 10^9/L
Body weight loss (% initial weight) ([2]; Dp4cycH4mT 5 mg/kg/day i.v.): 88.0 ± 6.5 % initial weight
Brain weight ([2]; Dp4cycH4mT 5 mg/kg/day i.v.): 0.30 ± 0.01 g
Heart weight ([2]; Dp4cycH4mT 5 mg/kg/day i.v.): 0.09 ± 0.01 g
Kidney weight ([2]; Dp4cycH4mT 5 mg/kg/day i.v.): 0.17 ± 0.02 g
Liver weight ([2]; Dp4cycH4mT 5 mg/kg/day i.v.): 0.80 ± 0.03 g
Spleen weight ([2]; Dp4cycH4mT 5 mg/kg/day i.v.): 0.08 ± 0.01 g
IC50 [3]: 400 ± 200 nM
IC90 [3]: 5400 ± 1100 nM
IC50 [4]: 50 ± 2 nM
IC90 [4]: > 5000 nM
cellular 59Fe mobilised (59Fe released as percentage of total 59Fe) [5]: 22%
IC50 fold lower compared to 5-fluorouracil [6]: ≥ 1000 fold
IC50 fold lower compared to gemcitabine [6]: at least 100 fold
cyclin D1 levels (cyclin D1): significantly (p<0.05) reduced
levels of metMb (metmyoglobin (metMb)): 31.7±3.2%
